Patent US6380146B1, “Bleaching detergent compositions” (priority 1999, dated 2002)
Where two headings read alike, the source gives them in different places.

Assays:
[1] = tested on: phenol oxidizing enzyme from Acremonium murorum; experiment: Bleaching of oily tomato stains on cotton swatches by phenol oxidizing enzyme/enhancer system; conditions: enhancer 250 μM, detergent formulation 2 g/l, pH 9, 30 min, 30° C.; for Stain bleach performance ΔE, Oily Tomato Stain, With enzyme: enzyme 20 mg/l; for Stain bleach performance ΔE, Oily Tomato Stain, Without enzyme: no enzyme
Description: (§1) The potential of the various enhancer to boost the bleach performance of phenol oxidizing enzyme was assessed by washing cotton swatches soiled with tomato stains. Two different bleach monitors were used:
Oily tomato stains were prepared by applying heated concentrated tomato paste, to which 5 wt % Soya oil was added, to cotton swatches.
(§2) The pH of the wash solution was set to pH 9. Purified phenol oxidizing enzyme from Acremonium murorum was added to the wash solution at 20 mg/l. […] The enhancers were all dosed at 250 μM. The wash solution was 50 mM Tris buffer.
(§3) The swatches were washed during 30 minutes, at 30° C. After the wash, the swatches were tumble-dried and the reflectance spectra were measured using a Minolta spectrometer. The color differences between the swatch before and after the wash data were expressed in the CIELAB L*a*b* color space. In this color space, L* indicates lightness and a* and b* are the chromaticity coordinates. Color differences between two swatches are expressed as ΔE, which is calculated from the following equation:
(§4) ΔE={square root over (ΔL^2[…] )}

[2] = tested on: phenol oxidizing enzyme from Acremonium murorum; conditions: enhancer 250 μM, detergent formulation 2 g/l, pH 9, 30 min, 30° C.; for Stain bleach performance ΔE, Tomato Extract, With enzyme: enzyme 20 mg/l; for Stain bleach performance ΔE, Tomato Extract, Without enzyme: no enzyme
Description: as §1
Tomato extract material was prepared by acetone extraction of the chromophores from concentrated tomato paste. For the preparation of the stains, the colored acetone solution was applied to cotton swatches
as §2, §3, §4

[3] = tested on: phenol oxidizing enzyme from Acremonium murorum; experiment: Dye damage of the phenol oxidizing enzyme/enhancer system on colored swatch P10, consecutive washes in detergent formulation; conditions: enzyme 20 mg/l, enhancer 250 μM, 40° C., 1 hour
Description: (§5) A number of colored swatches were washed to assess the degree to which the enzymatic bleach system provokes dye damage. Each swatch was subjected to 5 consecutive washes in a detergent formulation. The closed containers were agitated by putting them in a washing machine. The machine was run for 1 hour with the water heated to 40° C. The pH of the wash solution was set to pH 9. The phenol oxidizing enzyme from Acremonium murorum (see above) was added to the wash solution at 20 mg/l. The enhancers were all dosed at 250 μM.

[4] = tested on: phenol oxidizing enzyme from Acremonium murorum
Source text: The bleaching detergent composition of the present invention comprise one or more surfactants, a phenol oxidizing enzyme and a compound which acts as enhancer for the phenol oxidizing enzyme, said composition having an Enhancer Index as herein defined of at least 12. The Enhancer Index is defined for the purpose of this invention as the ratio of the bleach effect on tomato stains to the colored monitor P10 (ΔEtomato stain/ΔEP10 colored monitor) , and is further illustrated in the Examples. […] Preferably, the Enhancer Index is at least 15, and in particular in the range of 15-50.
In order to express the potential of the various enhancers to provoke stain bleaching in the absence of dye damage, the ratio of bleach effect on the tomato stains to the colored monitor P10 was calculated (ΔEtomato stain/ΔEP10 colored monitor) . This ratio, when tomato extract is used as the stain, is referred to as the ‘Ehancer Index’.

[5] = tested on: phenol oxidizing enzyme from Acremonium murorum; experiment: Dye damage of the phenol oxidizing enzyme/enhancer system on dyed swatches, 3 washes in Tris buffer; conditions: Tris buffer pH 8, enzyme 20 mg/l, enhancer 250 μM; for Color difference (ΔE) dyed swatch OO2 after 3 washes: Dyed Monitor OO2, 3 washes; for Color difference (ΔE) dyed swatch OO6 after 3 washes: Dyed Monitor OO6, 3 washes; for Color difference (ΔE) dyed swatch P10 after 3 washes: Dyed Monitor P10, 3 washes; for Color difference (ΔE) dyed swatch PO8 after 3 washes: Dyed Monitor PO8, 3 washes
Description: as §5, with “Each swatch was subjected to 5 consecutive washes in a detergent formulation.” left out, “The pH of the wash solution was set to pH 9.” left out

[6] = ΔE oily tomato stain/ΔE P10, 50 mM Tris buffer solution
[7] = ΔE oily tomato stain/ΔE P10, detergent formulation
[8] = ΔE tomato extract/ΔE P10, 50 mM Tris buffer solution
[9] = ΔE tomato extract/ΔE P10, detergent formulation

Compound | Stain bleach performance ΔE, Oily Tomato Stain, With enzyme [1] | Stain bleach performance ΔE, Oily Tomato Stain, Without enzyme [1] | Stain bleach performance ΔE, Tomato Extract, With enzyme [2] | Stain bleach performance ΔE, Tomato Extract, Without enzyme [2] | Color difference (ΔE) original P10 swatch vs after 1st wash [3] | Color difference (ΔE) original P10 swatch vs after 2nd wash [3] | Color difference (ΔE) original P10 swatch vs after 3rd wash [3] | Color difference (ΔE) original P10 swatch vs after 4th wash [3] | Color difference (ΔE) original P10 swatch vs after 5th wash [3] | Ratio Bleach on Stain Monitor/Dye Damage, Oily Tomato Stain [4, 6] | Ratio Bleach on Stain Monitor/Dye Damage, Oily Tomato Stain [4, 7] | Ratio Bleach on Stain Monitor/Dye Damage, Tomato Extract (Enhancer Index) [4, 8] | Ratio Bleach on Stain Monitor/Dye Damage, Tomato Extract (Enhancer Index) [4, 9] | Color difference (ΔE) dyed swatch OO2 after 3 washes [5] | Color difference (ΔE) dyed swatch OO6 after 3 washes [5] | Color difference (ΔE) dyed swatch P10 after 3 washes [5] | Color difference (ΔE) dyed swatch PO8 after 3 washes [5]
Cc1ccc(S(=O)(=O)Nc2cc(Br)c(O)c(Br)c2Br)cc1 [3Brphenol3MeBSA, N-(2,3,5-tribromo-4-hydroxyphenyl)-4-Methyl Benzenesulfonamide] | 11.71 | 6.87 | 27.57 | 12.86 | 0.93 | 0.98 | 1.10 | 1.62 | 1.86 | 6.46 | 6.29 | 20.40 | 14.82 | 0.41 | 4.59 | 0.96 | 1.52
O=C(O)CCN1c2ccccc2Sc2ccccc21 [PTP, Phenothiazine-10-propionate] | 9.41 | 8.54 | 33.66 | 12.00 | 0.51 | 0.78 | 1.79 | 2.63 | 3.25 | 0.69 | 2.89 | 3.59 | 10.35 | 6.34 | 15.64 | 9.66 | 12.57
O=S(=O)(Nc1cc(Br)c(O)c(Br)c1Br)c1ccccc1 [Enhancer 3BrphenolBSA, N-(2,3,5-tribromo-4-hydroxyphenyl)-Benzenesulfonamide] | 10.95 | 6.89 | 26.87 | 12.99 | 1.69 | 1.17 | 1.20 | 1.55 | 1.77 | 5.62 | 6.18 | 19.97 | 15.18 | 0.47 | 4.45 | 1.00 | 1.45
CCn1c(=NN=c2sc3cc(S(=O)(=O)O)ccc3n2CC)sc2cc(S(=O)(=O)O)ccc21 [ABTS] | 27.53 | 8.67 | 37.56 | 11.12 | 1.61 | 1.51 | 3.29 | 4.99 | 6.52 | 2.66 | 4.22 | 2.93 | 5.76 | 3.47 | 19.70 | 12.18 | 24.02
